Earlier results as cited in patent EP4506356A1, “METHANOL-INDUCIBLE PROMOTER AND USE THEREOF IN PREPARATION OF L-ALANYL-L-GLUTAMINE” (Wuhan Grand Hoyo Co., Ltd., priority 2022, dated 2023).
In brackets after ≈: the same amount, converted by molar mass. Residues, ends and D or L forms follow the SMILES beside them.

C[C@H](N)C(=O)N[C@@H](CCC(N)=O)C(=O)O [Alanyl-glutamine dipeptide, L-alanyl-L-glutamine] (H-Ala-Gln-OH)
water solubility: 586 mg/mL (≈ 2700 mM)
